How the values were obtained:
AAV8 = test: Production of AAV8 in HEK293 by adding sodium dichloroacetate (genome titer by real-time PCR, particles by ELISA, full capsid ratio); format: cell-based, human; conditions: HEK293, 5 mM sodium dichloroacetate, 3 days after transfection, medium without DCA = 100%
Experimental: (§1) In the following Example 1, the ability of human embryonic kidney cell 293 (HEK293) to produce AAV was evaluated using sodium dichloroacetate. The reagents, cells, and medium used are as follows: • Sodium dichloroacetate: Sodium dichloroacetate (FUJIFILM Wako Pure Chemical Industries, Ltd., 326-87772) • HEK293: Viral Production Cells 2.0 (Thermo Fisher Scientific, A49784) • medium for HEK293: Viral Production Medium (Thermo Fisher Scientific: A4817901)
(§2) Viral Production Cells 2.0 were seeded in 30 mL of Viral Production Medium supplemented with GlutaMAXIM Supplement (Thermo Fisher Scientific: 35050061) to a final concentration of 4 mM in a 125 mL Erlenmeyer flask (VIOLAMO, SEF125V). The cells were then cultured in an incubator set at 37° C., 8% CO2 under stirring for two passages. […] On day 3, the number of viable cells was measured using a viable cell autoanalyzer Vi-CELL BLU (manufactured by Becman). […] 2 (Takara Bio: 6233), and the AAV8 genome titer was measured using 7500 Fast Real-Time PCR System (Thermo Fisher Scientific: 4357362). In addition, the number of viral particles was also measured using AAV-8 Titration ELISA Kit (PROGEN Biotechnik: PRAAV8). The full/empty capsid ratio (full capsid ratio) was calculated therefrom.

Human adenovirus 32 = test: Production of adenovirus in HEK293 by adding sodium dichloroacetate in suspension culture system; format: cell-based; conditions: HEK293 2.sus, CDM4HEK293 with or without sodium dichloroacetate, MOI 0.1
Experimental: In the following Example, the ability of human embryonic kidney cell 293 (HEK293) to produce adenovirus can be evaluated using sodium dichloroacetate. […] The cell number is measured using a hemocytometer and glutamine-containing 293 SFM II is added to 3×10^5 cells/mL. […] The cell number is measured using a hemocytometer and the culture solution is added to 3×10^5 cells/mL. 5 ML of the adjusted cell suspension is added to two Petri dishes and culturing with shaking (50 rpm) is performed in a CO2 incubator for 3-4 days. • (11) After culturing, steps (8) to (10) are repeated three times. • (12) After culturing for 3 days, the cell number is measured (FIG. 1) and adjusted to 1×10^5 cells/ml using CDM4HEK293 with or without addition of sodium dichloroacetate, and 5 mL thereof is added per Petri dish. […]

HEK293 = test: Effect of sodium dichloroacetate on proliferation of HEK293 in suspension culture (viable cell density); format: cell-based, human; conditions: HEK293 (Viral Production Cells 2.0), Viral Production Medium + 5 mM sodium dichloroacetate vs medium without, 3 days, FIG. 1
Experimental: as §1, §2

With `O=C([O-])C(Cl)Cl.[Na+]` [sodium dichloroacetate, Sodium dichloroacetate] the “AAV8 genome titer (relative)” value (AAV8; FIG. 2) was “improvements”, the “full capsid ratio (relative)” value (AAV8; FIG. 3) was “improvements” and the adenovirus titer (Human adenovirus 32) was “Improvement”. The “cell proliferation (viable cell density before dilution on day 3 after seeding)” value (HEK293) was “slightly inhibited cell proliferation”.

From patent US20260193619A1, “CULTURE MEDIUM COMPOSITION” (priority 2023, published 2026)
